Experimental data: article PMC9822270, “Modulation Effect on Tubulin Polymerization, Cytotoxicity and Antioxidant Activity of 1H-Benzimidazole-2-Yl Hydrazones” (Molecules, 2022)
“And” between values parts separate entries of the source, which are not always exact repeats. Equal values may be shown once. “Also recorded” adds a separate entry of the source. Read-outs that look alike come from different tables or passages of the source.

How the values were obtained:
[1] = tested on: 3T3 (mouse embryo fibroblasts); test: Cytotoxicity against normal 3T3 cells; assay type: cell-based; conditions: normal mouse embryo fibroblast cell line; ± SD
From the text: (§1) A standard colorimetric MTT assay was used to evaluate the anticancer activity of the newly synthesized 1H-benzimidazol-2-yl hydrazone derivatives against human malignant cell lines of different histological origin, namely MCF-7 (ER-positive breast adenocarcinoma) and AR-230 (BCR-ABL positive chronic myeloid leukemia), using podophyllotoxin as a reference drug. For each compound, the half-inhibitory concentrations (IC50) were estimated based on the derived “dose–response” relationships following 72h exposure time. In addition, their cytotoxicity was measured against normal fibroblast cells 3T3 (mouse embryo fibroblasts) and CCL-1 (murine fibroblasts) and respective cancer selectivity indices (CSI) were calculated (Table 2).
Evaluation of the cytotoxic activity of some of the compounds was performed on 3T3 (mouse embryo fibroblasts) cell line. The cells were cultivated in Dulbecco′s Modified Eagle′s Medium (DMEM), containing 10% FBS, with supplements L-glutamine, sodium pyruvate, antibiotic and non-essential amino acids, and allowed to adhere overnight at 37 °C in an incubator with 5% CO2 humidified atmosphere. At the end of the incubation, the cells were treated with different concentrations of the compounds in a final volume of 100 μL/well in triplicate wells for each treatment for 24 h at 37 °C in a CO2 incubator. All studies were repeated at least twice. Control cells were grown in DMEM containing 10% FBS and allowed to stabilize overnight at 37 °C in a CO2 incubator and left without treatment.

[2] = tested on: AR-230 (BCR-ABL positive chronic myeloid leukemia); test: MTT cytotoxicity assay, AR-230; assay type: cell-based, human; conditions: for IC50: Homo sapiens, read-out: IC50 AR-230
From the text: as §1
(§2) The cell lines MCF-7, AR-231 and CCL-1 were obtained from the German Collection of Microorganisms and Cell Cultures. Cells were kept in a controlled environment—RPMI-1640 medium supplemented with 10% fetal bovine serum (FBS) and 2mM L-glutamine, at 37 °C in an incubator with 5% CO2 humidified atmosphere.
(§3) MTT-based colorimetric assay was used for evaluating the cell viability. The method is based on the reduction of the yellow tetrazolium compound MTT to water-insoluble, violet formazan crystals. MCF-7, AR-231, and CCL-1 cells were seeded in 96-well, flatbottomed microplates (100 µL/well) at a density of 3 × 10^5 cells per mL and allowed to grow for 24 h prior the exposure to the studied compounds. Cells were exposed to the tested agents for 72 h. After the exposure period MTT solution (10 mg.mL^−1) aliquots (100 µL/well) were added to each well. The plates were further incubated for 4 h at 37 °C and the MTT-formazan crystals formed were dissolved through addition of […] of 5% HCOOH in 2-propanol. The absorption was measured at 580 nm using a microplate reader (Labexim LMR-1).

[3] = tested on: MCF-7 (ER-positive breast adenocarcinoma); test: MTT cytotoxicity assay, MCF-7; assay type: cell-based, human; conditions: for IC50: Homo sapiens, read-out: IC50 MCF-7
From the text: as §1, §2, §3

porcine brain tubulin = target: T1, porcine brain tubulin (Sus scrofa, UniProt P02550+P02554); test: In vitro tubulin polymerization assay (turbidity at 340 nm); assay type: biochemical; conditions: 10 µM compound; for Initial Rate of the Exponential Phase, Signal Response / Lag Time: 37 °C, 90 min, turbidity 340 nm
T1 construct: The standard reaction mixture contains 95 μL of 4 mg.mL^−1 porcine brain tubulin; purchased Cytoskeleton, USA BK004P; host or cells: porcine brain (tissue-purified)
T1 sequence (P02550 whole entry): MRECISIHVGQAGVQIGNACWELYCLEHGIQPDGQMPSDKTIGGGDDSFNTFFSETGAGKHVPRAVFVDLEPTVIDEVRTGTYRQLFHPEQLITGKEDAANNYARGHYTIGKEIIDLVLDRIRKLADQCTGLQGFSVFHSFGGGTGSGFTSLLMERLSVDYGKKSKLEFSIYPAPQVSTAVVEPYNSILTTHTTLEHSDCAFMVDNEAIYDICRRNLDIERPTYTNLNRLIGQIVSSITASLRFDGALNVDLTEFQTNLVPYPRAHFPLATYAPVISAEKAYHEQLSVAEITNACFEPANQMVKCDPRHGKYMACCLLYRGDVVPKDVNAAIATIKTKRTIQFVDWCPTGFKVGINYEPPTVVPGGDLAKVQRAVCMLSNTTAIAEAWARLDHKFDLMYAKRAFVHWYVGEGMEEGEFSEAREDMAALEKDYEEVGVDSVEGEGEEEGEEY
T1 sequence (P02554 whole entry): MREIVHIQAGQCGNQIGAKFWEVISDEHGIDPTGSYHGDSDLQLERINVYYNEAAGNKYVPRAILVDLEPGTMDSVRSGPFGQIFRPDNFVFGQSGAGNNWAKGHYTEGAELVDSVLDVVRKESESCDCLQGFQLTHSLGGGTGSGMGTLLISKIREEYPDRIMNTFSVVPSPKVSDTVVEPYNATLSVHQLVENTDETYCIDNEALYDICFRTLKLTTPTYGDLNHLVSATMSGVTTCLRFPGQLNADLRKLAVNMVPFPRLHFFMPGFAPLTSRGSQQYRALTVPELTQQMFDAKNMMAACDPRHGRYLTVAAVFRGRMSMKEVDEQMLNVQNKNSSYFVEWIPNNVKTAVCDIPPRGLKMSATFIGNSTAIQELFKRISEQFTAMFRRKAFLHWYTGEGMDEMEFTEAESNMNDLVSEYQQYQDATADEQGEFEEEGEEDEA
Method: The ability of the compounds to modulate the polymerization of tubulin was evaluated in vitro on purified porcine tubulin by spectrophotometric monitoring at 340 nm and compared to those of nocodazole and paclitaxel as reference compounds. Nocodazole which inhibits the assembly of tubulin was used as a positive control, and paclitaxel which is a stabilizing agent of tubulin polymerization was used as a negative control. Tubulin polymerization was determined with 10 µM of the reference drugs and compounds 1a–l for 90 min.
Figure 3 Porcine brain tubulin (final […]) in presence of PB-GTP buffer, 10 µM paclitaxel, 10 µM nocodazole and 10 µM of the assayed compounds. Reaction was conducted in thermostated spectrophotometric chamber at 37 °C for 90 min. Turbidity was measured at 340 nm every 30 s.
The effect of the studied compounds on the polymerization of purified porcine tubulin was monitored using a commercial assay kit (cat. number BK004P), purchased from Cytoskeleton, USA. Stock solutions of porcine brain tubulin solutions (4 mg.mL^−1) were prepared immediately prior to use in general tubulin buffer (80 mM piperazine-N,N′-bis(2-ethanesulfonic acid, PIPES) pH 6.9, 2 mM MgCl2 and 0.5 mM (ethylene glycol-bis(β-aminoethyl ether)-N,N,N′,N′-tetraacetic acid, EGTA) containing 1 mM guanosine triphosphate (GTP) (G-PEM buffer). Stock solutions of Paclitaxel (100 µM), Noconazole (100 µM) or tested samples (100 µM) in G-PEM buffer containing 5% DMSO were prepared.
The standard reaction mixture contains 95 μL of 4 mg.mL^−1 porcine brain tubulin and 5 μL of standards, test samples or G-PEM buffer only (control). Then, the microplate with loaded reaction mixtures was incubated for 90 min. at 37 °C in a thermostated spectrophotometer chamber. The turbidity of the mixtures was measured at 340 nm every 30 s. The experiment was performed on SpectroStar Nano (BMG Labtech, Aylesbury, UK) equipped with software for kinetic measurements.

[4] = tested on: CCL-1 (murine fibroblasts); test: MTT cytotoxicity against normal CCL-1 cells; assay type: cell-based; conditions: Mus musculus, 72 h, read-out: IC50 CCL-1
From the text: as §1, §2, §3

[5] = Hydroxyl radical averting capacity (HORAC); conditions: gallic acid equivalents; sample final concentration 2.5 μM; Co(II)/H2O2, fluorescein; mean
Method: HORAC values of various phenolic compounds are related to their metal chelating properties and molecules that can chelate metals show significant HORAC values. According to the HORAC assays, the antioxidant capacity ranged between 0.50 and 3.03 GAE. […] To our knowledge, the current study is the first one to report ORAC and HORAC activities of 1H-benzimidazole-2-yl hydrazones.
HORAC was performed according to Ou et al. and fluorescein was used as the fluorescent probe. Hydrogen peroxide solution of 0.55 M was prepared in distilled water. 4.6 mM Co(II) was prepared as follows: 15.7 mg of CoF2.4H2O and 20 mg of picolinic acid were dissolved in 20 mL of distilled water. Fluorescein—170 µL (60 nM, final concentration) and 10 µL of sample were incubated at 37 °C for 10 min directly in the FLUOstar plate reader. […] The initial fluorescence was measured after which the readings were taken every minute after shaking. […] The AUC were calculated as they were for the ORAC assay. One HORAC unit was assigned to the net protection area provided by 1 µM gallic acid (final concentration −0.05 μM) and the activity of the sample was expressed as Gallic Acid Equivalents (GAE).
ORAC and HORAC analyses were carried out on a FLUOstar Galaxy plate reader (BMG Labtechnology, Offenburg, Germany) with excitation wavelength = 485 nm and emission wavelength = 520 nm.

[6] = normal murine fibroblast cell line, MTT, ± SD

Structure (SMILES)	Initial Rate of the Exponential Phase, Signal Response (porcine brain tubulin)	Lag Time (porcine brain tubulin)	lag time of tubulin polymerization (porcine brain tubulin)	IC50 [1]	IC50 ([2]; MTT, 72 h exposure, ± SD)	CSI AR230 (cancer selectivity index) ([2]; IC50(3T3)/IC50(AR-230))	IC50 ([3]; MCF7, MTT, 72 h exposure, ± SD)	CSI MCF-7 (cancer selectivity index) ([3]; IC50(3T3)/IC50(MCF-7))	IC50 [4, 6]	CSI AR230 (cancer selectivity index) ([2]; IC50(CCL-1)/IC50(AR-230))	CSI MCF-7 (cancer selectivity index) ([3]; IC50(CCL-1)/IC50(MCF-7))	IC50 ([4]; Fibroblast)	IC50 ([2]; 72 h)	IC50 ([3]; MCF7, 72 h)	HORAC [5]
COc1ccc(/C=N/Nc2nc3ccccc3[nH]2)cc1O [Compound 1l]	16 a.u.s^−1 × 10^−6	no lag phase	–	134.7 ± 1.3 µM	16.8 ± 3.4 µM	≈8	27.6 ± 3.5 µM	≈4.8	–	–	–	–	–	–	–
Oc1ccc(/C=N/Nc2nc3ccccc3[nH]2)cc1O [Compound 1d]	13.3 a.u.s^−1 × 10^−6	1400 s and 1407 s	–	–	61.8 ± 5.7 µM	–	–	–	113 ± 9.1 µM	≈1.8	–	–	–	–	–
COc1cc(/C=N/Nc2nc3ccccc3[nH]2)cc(OC)c1OC [Compound 1i]	20.6 a.u.s^−1 × 10^−6	988 s	–	71 ± 2.4 µM	1.7 ± 0.3 µM	≈41.7	1.2 ± 0.2 µM	≈59.1	–	–	–	–	–	–	–
COc1cccc(/C=N/Nc2nc3ccccc3[nH]2)c1O [Compound 1j]	16.9 a.u.s^−1 × 10^−6	1200 s	more than 20 min	–	1.1 ± 0.2 µM	–	6.4 ± 1.2 µM	–	> 400 µM	≈ 363; also recorded: ≈363.6	> 50	–	–	–	–
Oc1cccc(/C=N/Nc2nc3ccccc3[nH]2)c1O [Compound 1b]	13.4 a.u.s^−1 × 10^−6	1400 s and 1461 s	–	61.1 ± 1.8 µM	3.3 ± 0.3 µM	≈18.4	64.5 ± 6.2 µM	≈1	–	–	–	–	–	–	–
COC(=O)Nc1nc2ccc(C(=O)c3cccs3)cc2[nH]1 [nocodazole, reference compound]	52 a.u.s^−1 × 10^−6	935 s	–	–	–	–	–	–	–	–	–	–	–	–	–
COc1cc([C@@H]2c3cc4c(cc3[C@H](O)[C@H]3COC(=O)[C@H]23)OCO4)cc(OC)c1OC [Podophyllotoxin, reference compound]	–	–	–	–	–	–	–	–	–	≈5.7	≈9	2.7 µM	0.47 ± 0.09 µM	0.3 ± 0.06 µM	–
Oc1ccc(/C=N/Nc2nc3ccccc3[nH]2)c(O)c1O [Compound 1e]	–	–	–	–	–	–	–	–	–	–	–	–	–	–	2.79 GAE
CC(=O)O[C@H]1C(=O)[C@@]2(C)[C@H]([C@H](OC(=O)c3ccccc3)[C@]3(O)C[C@H](OC(=O)[C@H](O)[C@@H](NC(=O)c4ccccc4)c4ccccc4)C(C)=C1C3(C)C)[C@]1(OC(C)=O)CO[C@@H]1C[C@@H]2O [paclitaxel, reference compound]	167 a.u.s^−1 × 10^−6	151 s	–	–	–	–	–	–	–	–	–	–	–	–	–
COc1cccc(OC)c1/C=N/Nc1nc2ccccc2[nH]1 [Compound 1g]	10.7 a.u.s^−1 × 10^−6	1000 s	–	261 ± 4.7 µM	11.5 ± 1 µM	≈22.6	7.9 ± 2.1 µM	≈33	–	–	–	–	–	–	–

Further lines, with some results ahead:

Initial Rate of the Exponential Phase, Signal Response (porcine brain tubulin)	Lag Time (porcine brain tubulin)	lag time of tubulin polymerization (porcine brain tubulin)	Structure (SMILES)	IC50 [1]	IC50 ([2]; MTT, 72 h exposure, ± SD)	CSI AR230 (cancer selectivity index) ([2]; IC50(3T3)/IC50(AR-230))	IC50 ([3]; MCF7, MTT, 72 h exposure, ± SD)	CSI MCF-7 (cancer selectivity index) ([3]; IC50(3T3)/IC50(MCF-7))	IC50 [4, 6]	CSI AR230 (cancer selectivity index) ([2]; IC50(CCL-1)/IC50(AR-230))	CSI MCF-7 (cancer selectivity index) ([3]; IC50(CCL-1)/IC50(MCF-7))	IC50 ([4]; Fibroblast)	IC50 ([2]; 72 h)	IC50 ([3]; MCF7, 72 h)	HORAC [5]
8.77 a.u.s^−1 × 10^−6	1390 s	–	Oc1ccccc1/C=N/Nc1nc2ccccc2[nH]1 [Compound 1a]	204 ± 5.1 µM	21.2 ± 2.3 µM	≈9.6	18.7 ± 1.1 µM	≈11	–	–	–	–	–	–	–
17.1 a.u.s^−1 × 10^−6	807 s	–	COc1ccc(/C=N/Nc2nc3ccccc3[nH]2)cc1 [Compound 1f]	355 ± 5.3 µM	19.4 ± 2.2 µM	≈18.2	11.2 ± 1.3 µM	≈31.6	–	–	–	–	–	–	–
9.7 a.u.s^−1 × 10^−6	1295 s	more than 20 min	COc1ccc(/C=N/Nc2nc3ccccc3[nH]2)c(O)c1 [Compound 1k]	–	0.9 ± 0.1 µM	–	1.5 ± 0.3 µM	–	102 ± 7.3 µM	≈113	≈67.8	–	–	–	–
4.9 a.u.s^−1 × 10^−6	1190 s	–	Oc1ccc(/C=N/Nc2nc3ccccc3[nH]2)c(O)c1 [Compound 1c]	–	–	–	–	–	–	–	–	–	–	–	2.69 GAE
23.1 a.u.s^−1 × 10^−6	1090 s	–	COc1cc(/C=N/Nc2nc3ccccc3[nH]2)cc(OC)c1 [Compound 1h]	335 ± 7 µM	5.9 ± 0.9 µM	≈56.7	4.6 ± 0.7 µM	≈72.8	–	–	–	–	–	–	–
